From US20210041441A1, “DISCOVERY OF NOVEL MOLECULES AND REPURPOSED DRUGS FOR RAS FAMILY GTPases” (UNM Rainforest Innovations, priority 2018, published 2021)
Entries after “also recorded” stand apart in the source; their conditions may differ. Where a name gives a salt, the structure may show the parent alone.

Legend:
Q61 KRas mutants = assay: Multiplex flow cytometry Bodipy FL-GTP binding, compound dose response, Q61 mutants; design: species or system Human; settings: 10 nM Bodipy FL-GTP
Protocol: Bead Coupling: 4 μm diameter, glutathione-beads (GSH-beads), distinguished by ten different intensities of red fluorescence (varying by several orders of magnitude of emission at 665±10 nm with excitation at 635 nm) were obtained by special order from Duke Scientific Corp. Each polystyrene bead set is supplied at 1.4×10^8 beads/ml with approximately 1.2×10^6 glutathione sites per bead (determined by using GST—green fluorescent protein^42). Prior to incubation with individual GST-GTPase fusion proteins, an appropriate volume of each bead slurry was incubated for 30 minutes at room temperature in assay buffer (20 mM HEPES pH 7.5, 125 μM […], 1 mM MgCl2, 0.5 mM EDTA pH 8.0, 0.01% NP-40) supplemented with 1 mM dithiothreitol and 0.1% BSA. Following this initial incubation, passivated beads were collected by centrifugation and resuspended in assay buffer with individual GST-GTPase fusion proteins at a final concentration of […]. Overnight coupling reactions were carried out at 4° C. with rotation. The amount of each bead type used for coupling and the final volume of the coupling reaction was determined by the experimental protocol. Typically, bead sets are used at a final concentration of 200 bead/μL. To remove unbound GST-GTPase, bead sets were washed twice by centrifugation with ice-cold assay buffer. Individually coated beads were pooled together and kept cold in an appropriate volume before use in binding assays. Bead-bound proteins are sufficiently stable to study secondary interactions between GTPase-GST chimera's and Bodipy-FL GTP^54. Note that an extra GSH-bead set is included that is not protein coupled. This set serves as a ‘scavenger’ for proteins that might dissociate during the binding assay.
For assay screening plates, compound libraries were first dispensed into columns 3-22 using a Labcyte 555 Echo Acoustic Dispenser (San Jose, Calif.) for a final concentration of 10 μM. An equal volume (10 nL) of DMSO was added to the vehicle control wells (column 2). Following the addition of library compounds, 2 μL of assay buffer was added and the plates were mixed before addition of 5 μL of the protein-coupled bead mixtures; 10 μL of assay buffer was added to empty wells in columns 1 and 24. Empty wells serve as wash wells between compound wells and control wells. Plates were mixed and incubated on a rotator for 30 minutes at 4° C. before the addition of 3 μL of Bodipy FL-GTP resulting in a final concentration 10 nM Bodipy FL-GTP. Plates were mixed and incubated for 1 hour at 4° C. Negative controls, containing bead mixtures, Bodipy FL-GTP, and 30 μM unlabeled GTP were assayed separately. Dose response plates were assembled similarly.
Data Acquisition: Assay plates were sampled using the HyperCyt™ high throughput flow cytometry platform (Intellicyt; Albuquerque, N. Mex.). During sampling, the probe moves from well to well and samples 1-2 μL from each well with 0.4 sec transit time in the air before sampling the next well. The resulting sample stream consisting of 384 bubble-separated samples is delivered to an Accuri C6 flow cytometer (BD Biosciences; San Jose, Calif.). Bodipy FL-GTP fluorescence is excited at 488 nm and detected with a 533/30 bandpass filter. […] Gating based on red fluorescence emission distinguishes the separately coated beads. […]

[1] = tested on: Ras family GTPases (KRas WT, G12v, G13d, G12a, G12c, G12d, Q61H, Q61L, Q61R; HRas WT, HRas G12v; CDC42 WT, CDC42 L61; Rac1 WT, Rac1 L61); assay: Multiplex flow cytometry Bodipy FL-GTP binding, compound screen and dose response; settings: for class of modulation of Bodipy-GTP binding to Ras family GTPases (pan activator, pan inhibitor, selective inhibitor, mixed activity modulator): multiplex, 10 nM Bodipy FL-GTP, compound 100-0.015 μM, normalized to DMSO; for activity or affinity relative to other compounds / selectivity among GTPases (RAS vs non-RAS, individual proteins): multiplex dose response
Protocol: Following this initial incubation, passivated beads were collected by centrifugation and resuspended in assay buffer with individual GST-GTPase fusion proteins at a final concentration of 1 M. Overnight coupling reactions were carried out at 4° C. with rotation. The amount of each bead type used for coupling and the final volume of the coupling reaction was determined by the experimental protocol. Typically, bead sets are used at a final concentration of 200 bead/μL. To remove unbound GST-GTPase, bead sets were washed twice by centrifugation with ice-cold assay buffer. Individually coated beads were pooled together and kept cold in an appropriate volume before use in binding assays. Bead-bound proteins are sufficiently stable to study secondary interactions between GTPase-GST chimera's and Bodipy-FL GTP^54. Note that an extra GSH-bead set is included that is not protein coupled. This set serves as a ‘scavenger’ for proteins that might dissociate during the binding assay.
Data Acquisition: Assay plates were sampled using the HyperCyt™ high throughput flow cytometry platform (Intellicyt; Albuquerque, N. Mex.). During sampling, the probe moves from well to well and samples 1-2 μL from each well with 0.4 sec transit time in the air before sampling the next well. […] Plate data are acquired as time-resolved files that are parsed by software-based well identification algorithms, segregating individual well data that is merged with compound library files to determine compound activity in each well. Gating based on red fluorescence emission distinguishes the separately coated beads. Plate performance was validated using the Z-prime calculation^58.
Dose response data points were fitted by Prism® software (GraphPad Software Inc., San Diego, Calif.) using nonlinear least-squares regression in a sigmoidal dose-response model with variable slope, also known as the 4-parameter logistic equation.
Each well of an assay plate contained 10 sets of beads with variable red fluorescent intensities. Nine protein-coupled bead sets, carrying the different GST-KRas proteins were combined with an uncoupled GSH-bead that serves as a scavenger for GST-proteins that might dissociate during the assay. Bead mixtures were dispensed into individual wells of a 384-well assay plate and incubated with fluorescent GTP in the presence of library compounds. The final concentration of reagents in each assay well was 10 μM compound, 10 nM Bodipy FL-GTP, and 0.1% DMSO. Each bead set was added at 200 beads/μL. Each plate was analyzed both in forward (starting with A1) and reverse direction to account for fluorescent compounds that can carryover during sampling and effect subsequent sample values. […] Excess GTP containing wells were evaluated separately and were used, along with the DMSO control wells, to calculate a Z′ value for each bead set. […] A secondary single point evaluation was performed on these identified primary hits.

[2] = target: KRas proteins (Wild type, G12v, G13d, G12a, G12c, G12d, Q61L, and Q61R); assay: Dose dependent Bodipy FL-GTP binding assay, KRas multiplex; design: species or system Human; settings: separate KRas proteins, 1 hour at 4° C.; read-out: binding affinities
From the text: Bead Coupling: 4 μm diameter, glutathione-beads (GSH-beads), distinguished by ten different intensities of red fluorescence (varying by several orders of magnitude of emission at 665±10 nm with excitation at 635 nm) were obtained by special order from Duke Scientific Corp. Each polystyrene bead set is supplied at 1.4×10^8 beads/ml with approximately 1.2×10^6 glutathione sites per bead (determined by using GST—green fluorescent protein^42). […] The amount of each bead type used for coupling and the final volume of the coupling reaction was determined by the experimental protocol. […]
Dose Dependent Bodipy FL-GTP Binding Assays: For dose dependence binding assays, GTPase-coupled bead sets were incubated on a rotator for 1 hour at 4° C. with varying concentrations of Bodipy FL-GTP (0.3-300 nM). […] Non-specific binding of Bodipy-FL GTP was assessed by incubating coupled beads with excess GTP prior to the addition of the Bodipy analogue. […]
Assay Plate Assembly: Plate assays were performed in 384-well microtiter plates (Greiner Bio-one, #784101); plates were assembled using a BioTek MultiFlo™ Microplate Dispenser. For dose-dependent Bodipy FL-GTP binding assays, total and non-specific binding were assessed by pre-incubation (30 min/4° C.) in the absence or presence of 30 μM GTP, respectively. […]

GTPases (Rac1 and Cdc42) = settings: in cells, earlier studies; read-out: IC50 values for inhibitory activity against the GTPases; cited from earlier work
[3] = tested on: KRas G12v, HRas G12V, Kras Q61R, Rac1 L61, CDC42; assay: Equilibrium kinetics assays, real-time Bodipy FL-GTP association and dissociation; assay type: binding, Human; settings: for displacement of pre-bound Bodipy FL-GTP: pre-binding at 4° C. or RT in the presence of Mg2+
Protocol: Equilibrium Kinetics Assays: GTPase-coupled beads were prepared as described above and were kept on ice until used. Reactions were performed at room temperature in amber micro-centrifuge tubes in an appropriate volume of assay buffer. Bead mixtures were initially incubated on a rotator with Guanabenz acetate (100 μM) or DMSO for 30 min at 4° C. prior to the addition of 1 nM Bodipy FL-GTP. Real-time binding kinetics was recorded using an Accuri C6 flow cytometer. Binding association was followed for 15 minutes at which time excess GTP was added. Disassociation kinetics was followed for an additional 25 minutes. Data was analyzed using GraphPad Prism software. The association time course was fitted to a two phase exponential association and the dissociation time course was fitted to a two phase decay (exponential).
To determine mechanism of action, we evaluated binding and dissociation of Bodipy FL-GTP in real-time kinetic experiments in the presence of Guanabenz acetate or GTP. Tests included pre-binding of Bodipy-FL GTP at 4′ C. or RT in the presence of Mg^2+.
It was then elected to perform association rate analysis, using the order of addition of reagents used in screening, where guanabenz was added first, incubated at 4° C., then Bodipy FL-GTP was added at room temperature.

GTPases = settings: cited from earlier work
[4] = tested on: H-Ras, H-RasG12V, Rab and Rho subfamilies; settings: earlier studies; cited from earlier work

Q: Which results are given for `O=C1C(Cl)=C(NCCN2CCOCC2)C(=O)c2ncccc21` [NSC 663284]?
A: effect on GTP binding to Q61 KRas mutants (Q61 KRas mutants): not to Q61 KRas mutants; class of modulation of Bodipy-GTP binding to Ras family GTPases (pan activator, pan inhibitor, selective inhibitor, mixed activity modulator) ([1]; listed as NSC663284): Selective inhibitors

Q: What does the source list for `CN(C)CC/C=C1/c2ccccc2Sc2ccc(Cl)cc21` [Chlorprothixene hydrochloride]?
A: effect on GTP binding to Q61 KRas mutants (Q61 KRas mutants): not to Q61 KRas mutants; activity or affinity relative to other compounds [1]: most active; selectivity among GTPases (RAS vs non-RAS, individual proteins) [1]: selective for KRas WT, the KRas G12 mutants, and the HRas proteins; class of modulation of Bodipy-GTP binding to Ras family GTPases (pan activator, pan inhibitor, selective inhibitor, mixed activity modulator) ([1]; hydrochloride): selective inhibitors; class of modulation of Bodipy-GTP binding to Ras family GTPases (pan activator, pan inhibitor, selective inhibitor, mixed activity modulator) ([1]; listed as chlorprothixene hydrochloride, hydrochloride): Selective inhibitors; class of modulation of Bodipy-GTP binding to Ras family GTPases (pan activator, pan inhibitor, selective inhibitor, mixed activity modulator) ([1]; listed as chlorproxithene, hydrochloride): selective inhibition

Q: Which Kd [2] does the source give for “Guanosine 5′-Triphosphate, BODIPY™ FL 2′-(or-3′)-O-(N-(2-Aminoethyl) Urethane), Trisodium Salt [Bodipy FL-GTP]” here?
A: The Kd was 1 to 50 nM.

Q: With `O=C(c1ccccc1)c1ccc2n1CC[C@H]2C(=O)O` [R-ketorolac] as the compound, how does the IC50 (GTPases (Rac1 and Cdc42)) read?
A: Its IC50 is 500 to 1000 nM.

Q: For `N=C(N)N/N=C/c1c(Cl)cccc1Cl` [Guanabenz acetate], which “effect on GTP binding to Q61 KRas mutants” value (Q61 KRas mutants) is on record?
A: The value was “not to Q61 KRas mutants”.

Q: And the “association of Bodipy FL-GTP” value ([3]; guanabenz added first at 4° C., then Bodipy FL-GTP at room temperature, KRas G12v and HRas G12V vs Kras Q61R, Rac1 L61 and CDC42)?
A: Its value is “Dramatic differences in association”.

Q: And the “displacement of pre-bound Bodipy FL-GTP” value [3]?
A: The value was “not able to displace Bodipy FL-GTP”.

Q: And the “dissociation of Bodipy FL-GTP” value ([3]; stable GTPases in the absence of Mg)?
A: The value was “did not induce dissociation”.

Q: What about the “selectivity among GTPases (RAS vs non-RAS, individual proteins)” value [1] of the same compound?
A: The value was “selective for KRas WT, the KRas G12 mutants, and the HRas proteins”.

Q: And the “activity or affinity relative to other compounds” value ([1]; listed as guanabenz acetate)?
A: Its value is “most active; also recorded: comparable activity to a recently described KRas inhibitor with low μM affinity”.

Q: What about the “selectivity among GTPases (RAS vs non-RAS, individual proteins)” value ([1]; listed as guanabenz acetate) of the same compound?
A: The value was “does not appear to limit selectivity to G12D”.

Q: And the “class of modulation of Bodipy-GTP binding to Ras family GTPases (pan activator, pan inhibitor, selective inhibitor, mixed activity modulator)” value [1]?
A: Its value is “selective inhibitors”.

Q: And the “class of modulation of Bodipy-GTP binding to Ras family GTPases (pan activator, pan inhibitor, selective inhibitor, mixed activity modulator)” value ([1]; listed as guanabenz acetate)?
A: Its value is “Selective inhibitors”.

Q: With `CN1CCN(CCCN2c3ccccc3Sc3ccc(C(F)(F)F)cc32)CC1` [Trifluperazine Hydrochloride] as the compound, how does the “effect on GTP binding to Q61 KRas mutants” value (Q61 KRas mutants) read?
A: The value was “not to Q61 KRas mutants”.

Q: And the “class of modulation of Bodipy-GTP binding to Ras family GTPases (pan activator, pan inhibitor, selective inhibitor, mixed activity modulator)” value ([1]; hydrochloride)?
A: Its value is “selective inhibitors”.

Q: And the “class of modulation of Bodipy-GTP binding to Ras family GTPases (pan activator, pan inhibitor, selective inhibitor, mixed activity modulator)” value ([1]; listed as trifluoperazine, Hydrochloride)?
A: Its value is “Selective inhibitors; also recorded: weak inhibition”.

Q: What does the source list for `CC(C)(C)C(=O)Nc1ccc2c(c1)C(=O)C(=O)c1ccccc1-2` [SF1670]?
A: effect on GTP binding to Q61 KRas mutants (Q61 KRas mutants): activates Q61 KRas mutants; selectivity among GTPases (RAS vs non-RAS, individual proteins) [1]: RAS activator, non-RAS inhibitor; class of modulation of Bodipy-GTP binding to Ras family GTPases (pan activator, pan inhibitor, selective inhibitor, mixed activity modulator) [1]: modulators with mixed activity; class of modulation of Bodipy-GTP binding to Ras family GTPases (pan activator, pan inhibitor, selective inhibitor, mixed activity modulator) ([1]; listed as SF1760): mixed activity

Q: Which reported activity (GTPases) does the source give for `CSc1ccc(/C=C2/C(C)=C(CC(=O)O)c3cc(F)ccc32)cc1` [sulindac sulfide] here?
A: Its reported activity is “inhibitors”.

Q: For `CC1(C)Cc2c(sc(NC(=S)NC(=O)c3ccccc3)c2C(=O)O)CO1` [CID1067700], which “inhibitory activity on guanine nucleotide binding” value [4] is on record?
A: The value was “inhibitory activity against H-Ras and H-RasG12V; also recorded: broad spectrum inhibitor of the Rab and Rho subfamilies; also recorded: competitive inhibitor of nucleotide binding”.

Q: With `O=C(c1ccccc1)c1ccc2n1CCC2C(=O)O` (stereo not drawn) [ketorolac] as the compound, how does the reported activity (GTPases) read?
A: Its reported activity is “inhibitors”.

Q: For `Nc1nc2c(ncn2[C@@H]2O[C@H](COP(=O)(O)OP(=O)(O)OP(=O)(O)O)[C@@H](O)[C@H]2O)c(=O)[nH]1` [GTP], which “displacement of pre-bound Bodipy FL-GTP” value [3] is on record?
A: The value was “could be displaced by GTP”.
